Measured values from patent US6388090B2, “Imidazole derivatives” (Orion Corporation, priority 2000, dated 2002).

Test system: alpha2 Adrenoceptors (Alpha2AR)
Test: Antagonist activity on alpha2 adrenoceptors in rat vas deferens in vitro (electrically evoked contractions)
Conditions: isolated rat vas deferens, field stimulation; antagonist added at least five minutes before alpha2AR agonist
Protocol: Antagonist activity on alpha2 Adrenoceptors (Alpha2AR) in rat vas deferens in vitro
Rats were killed by CO2-suffocation. Vas deferentia were dissected out and both prostatic halves were removed to tissue chambers containing Krebs-solution of the following composition (mM): NaCl 118, KCl 4.7, CaCl22.5, KH2PO41.2, MgSO40.6, NaHCO325, glucose 11.1, aerated by 5% carbogen, temperature 37° C., pH 7.4. Propranolol […] and desipramine […] were added to prevent the possible effects on […] receptors and to prevent re-uptake of released norepinephrine, respectively. Preparations were tied to the bottom hooks of the incubation chambers and then to isometric force-displacement transducers above. Electrical stimulation was started after the equilibrium period (5 minutes under a resting tension of 0.5 g) by introducing field stimulation with the following parameters: twin-pulses, voltage 70 V, frequency 0.2 Hz, delay 5 ms, duration 2 ms. […] Inhibition of the electrically evoked contractions was measured as the response to alpha2AR agonists. Antagonist was administered into the incubation medium at least five minutes before agonist. Means ± SEM of percentage inhibition were calculated in the absence and in the presence of antagonist and expressed as dose-response curves. In order to express the antagonist potency, the pA2-value was calculated.

| SMILES | vas deferens Alpha2 antagonistic activity, pA2 |
| --- | --- |
| Fc1ccc(C2CC(Cc3c[nH]cn3)c3ccccc32)cc1 (stereo not shown) [Compound 7, 4-[3-(4-Fluorophenyl)indan-1-ylmethyl]-1H-imidazole] | pA2 = 7.6 |
| COc1cc2c(cc1OC)C(c1ccccc1)CC2Cc1c[nH]cn1 (stereo not shown) [Compound 2, 4-(5,6-Dimethoxy-3-phenylindan-1-ylmethyl)-1H-imidazole] | pA2 = 6.0 |
| c1ccc(C2OC(Cc3c[nH]cn3)c3ccccc32)cc1 (stereo not shown) [Compound 12, 4-(3-Phenyl-1,3-dihydroisobenzofuran-1-ylmethyl)-1H-imidazole] | pA2 = 6.3 |
| Oc1ccc2c(c1)C(Cc1c[nH]cn1)CC2c1ccc(F)cc1 (stereo not shown) [Compound 8, 1-(4-Fluorophenyl)-3-(1H-imidazol-4-ylmethyl)indan-5-ol] | pA2 = 6.7 |
| COc1ccc(C2CC(Cc3c[nH]cn3)c3cc(OC)ccc32)cc1 (stereo not shown) [Compound 5, 4-[6-Methoxy-3-(4-methoxyphenyl)indan-1-ylmethyl]-1H-imidazole] | pA2 = 6.3 |
| Fc1ccc(C2CC(Cc3c[nH]cn3)c3cc(F)ccc32)cc1 (stereo not shown) [Compound 15, 4-[6-Fluoro-3-(4-fluorophenyl)indan-1-ylmethyl]-1H-imidazole] | pA2 = 6.2 |
| Oc1ccc2c(c1)C(Cc1c[nH]cn1)C(c1ccccc1)C2 (stereo not shown) [Compound 14, 3-(1H-Imidazol-4-ylmethyl)-2-phenylindan-5-ol] | pA2 = 5.5 |
| Fc1ccc(C2CC(Cc3c[nH]cn3)c3ccccc32)cc1F (stereo not shown) [Compound 11, 4-[3-(3,4-Difluorophenyl)indan-1-ylmethyl]-1H-imidazole] | pA2 = 6.2 |
| Fc1cccc(C2CC(Cc3c[nH]cn3)c3ccccc32)c1 (stereo not shown) [Compound 9, 4-[3-(3-Fluorophenyl)indan-1-ylmethyl]-1H-imidazole] | pA2 = 6.2 |
| COc1ccc2c(c1)C(Cc1c[nH]cn1)C(c1ccccc1)C2 (stereo not shown) [Compound 13, 4-[(2,3-Dihydro-6-methoxy-2-phenyl-1H-inden-1-yl)methyl]-1H-imidazole] | pA2 = 5.6 |
| c1ccc(C2CC(Cc3c[nH]cn3)c3ccccc32)cc1 (stereo not shown) [Compound 1, 4-(3-Phenylindan-1-ylmethyl)-1H-imidazole] | pA2 = 7.0 |
| Fc1ccccc1C1CC(Cc2c[nH]cn2)c2ccccc21 (stereo not shown) [Compound 10, 4-[3-(2-Fluorophenyl)indan-1-ylmethyl]-1H-imidazole] | pA2 = 6.2 |
| Oc1cc2c(cc1O)C(c1ccccc1)CC2Cc1c[nH]cn1 (stereo not shown) [Compound 3, 1-(1H-Imidazol-4-ylmethyl)-3-phenylindan-5,6-diol] | pA2 = 5.6 |
| c1ccc(C2Cc3ccccc3C2Cc2c[nH]cn2)cc1 (stereo not shown) [Compound 16, 4-[(2,3-Dihydro-2-phenyl-1H-inden-1-yl)methyl]-1H-imidazole] | pA2 = 6.5 |
| Oc1ccc2c(c1)C(Cc1c[nH]cn1)CC2c1ccccc1 (stereo not shown) [Compound 4, 3-(1H-imidazol-4-ylmethyl)-1-phenylindan-5-ol] | pA2 = 6.9 |
| Oc1ccc(C2CC(Cc3c[nH]cn3)c3cc(O)ccc32)cc1 (stereo not shown) [Compound 6, 1-(4-Hydroxyphenyl)-3-(1H-imidazol-4-ylmethyl)indan-5-ol] | pA2 = 6.6 |
